Results from US9862740B2, “Process for preparing novel forms of tiacumicin B” (Olon S.P.A., priority 2014, dated 2018).

experiment: Particle size distribution (Psd comparison) of Tiacumicin B crystals; assay type: physicochemical; settings: in µm (unit assumed)
Method: 3000 g of pure Tiacumicin B were dissolved in about 40 L of CH3OH. 80 L of (C2H5)2O were added under stirring to the solution at the room temperature. The solution was then heated at 39° C. and the mixer speed was set at 20 rpm; 160 L of n-Pentane were added in about 30 minutes. The mixer speed was then set at 15 rpm and the solution was cooled at 5° C. in about 5 hours. The suspension was then filtered and product dried under vacuum. The crystal obtained has a not well defined crystal shape and a high amount of fine that make the product difficult to formulate. […] of pure Tiacumicin B were dissolved in 33 mL of CH3OH. 66 mL of (C2H5)2O were added under stirring to the solution at the room temperature. The solution was then heated at 39° C. and the mixer speed was set at 400 rpm; 132 mL of n-Pentane were added in about 30 minutes. The mixer speed was then set at 200 rpm and the solution was cooled at 5° C. in about 60 minutes. The suspension was heated at 30° C. and maintained at this temperature for about 30 minutes; then the suspension was cooled at 5° C. in about 60 minutes. The suspension was heated at 25° C. and maintained at this temperature for about 30 minutes; then the suspension was cooled at 5° C. in about 60 minutes. The suspension was heated at 15° C. and maintained at this temperature for about 30 minutes; then the suspension was cooled at 5° C. in about 60 minutes and maintained in this condition over night. The crystals obtained has a different more homogeneous and regular crystal habit respect to that obtained with the standard process and an improved psd (see FIGS. 3 and 4 and Table). 2000 g of pure Tiacumicin B were dissolved in 26 L of CH3OH. 52 L of (C2H5)2O were added under stirring to the solution at the room temperature. The solution was then heated at 39° C. and the mixer speed was set at 20 rpm; 130 L of n-Pentane were added in about 30 minutes. The mixer speed was then set at 8 rpm and the solution was cooled at 35° C. and maintained at this temperature for about 60 minutes. The suspension was cooled at 30° C. and maintained at this temperature for about 60 minutes. Then the suspension was cooled at 25° C. and maintained at this temperature for about 30 minutes. Then the suspension was cooled at 20° C. and maintained at this temperature for about 30 minutes. Then the suspension was cooled at 15° C. and maintained at this temperature for about 30 minutes. Then the suspension was cooled at 10° C. and maintained at this temperature for about 30 minutes. Then the suspension was cooled at 5° C. and maintained at this temperature for about 30 minutes. The suspension was heated at 30° C. and maintained at this temperature for about 30 minutes; then the suspension was cooled at 5° C. in about 60 minutes. The suspension was heated at 25° C. and maintained at this temperature for about 30 minutes; then the suspension was cooled at 5° C. in about 60 minutes. The suspension was heated at 15° C. and maintained at this temperature for about 30 minutes; then the suspension was cooled at 5° C. in about 60 minutes and maintained in this condition over night. The crystals obtained has a different more homogeneous and regular crystal habit respect to that obtained with the standard process and an improved psd (see FIGS. 3 and 4 and Table).

| D(0.1) | D(0.5) | D(0.9) | Compound |
| --- | --- | --- | --- |
| 10.82 | 35.94 | 73.79 | CCc1c(Cl)c(O)c(Cl)c(O)c1C(=O)O[C@H]1[C@H](O)[C@H](OC)[C@H](OC/C2=C\C=C\C[C@H](O)/C(C)=C/[C@H](CC)[C@@H](O[C@@H]3OC(C)(C)[C@@H](OC(=O)C(C)C)[C@H](O)[C@@H]3O)/C(C)=C/C(C)=C/C[C@@H]([C@@H](C)O)OC2=O)O[C@@H]1C [Example 2, Tiacumicin B] |
| 7.04 | 23.98 | 55.27 | CCc1c(Cl)c(O)c(Cl)c(O)c1C(=O)O[C@H]1[C@H](O)[C@H](OC)[C@H](OC/C2=C\C=C\C[C@H](O)/C(C)=C/[C@H](CC)[C@@H](O[C@@H]3OC(C)(C)[C@@H](OC(=O)C(C)C)[C@H](O)[C@@H]3O)/C(C)=C/C(C)=C/C[C@@H]([C@@H](C)O)OC2=O)O[C@@H]1C [Example 3, Tiacumicin B] |
| 3.90 | 11.36 | 27.35 | CCc1c(Cl)c(O)c(Cl)c(O)c1C(=O)O[C@H]1[C@H](O)[C@H](OC)[C@H](OC/C2=C\C=C\C[C@H](O)/C(C)=C/[C@H](CC)[C@@H](O[C@@H]3OC(C)(C)[C@@H](OC(=O)C(C)C)[C@H](O)[C@@H]3O)/C(C)=C/C(C)=C/C[C@@H]([C@@H](C)O)OC2=O)O[C@@H]1C [Example 1, Tiacumicin B] |
